Results published in ChEMBL document CHEMBL4138141, “Rapid generation of a novel DPP-4 inhibitor with long-acting properties: SAR study and PK/PD evaluation” (Eur J Med Chem, 2017).

Key:
[1] = Half life in rat liver microsomes at […] by LC-MS/MS analysis; assay type: ADME, microsome
[2] = Half life in human liver microsomes at […] by LC-MS/MS analysis; assay type: ADME, microsome
[3] = Half life in Sprague-Dawley rat at 25 mg/kg, po administered as single dose by LC-MS/MS analysis; assay type: ADME, organism-based; conditions: in vivo
[4] = Tmax in Sprague-Dawley rat at 25 mg/kg, po or 5 mg/kg, iv administered as single dose by LC-MS/MS analysis; assay type: ADME, organism-based; conditions: in vivo
[5] = test system: Rattus norvegicus; test: AUC (0 to t) in Sprague-Dawley rat at 25 mg/kg, po administered as single dose by LC-MS/MS analysis; assay type: ADME, organism-based; conditions: in vivo
[6] = test system: Rattus norvegicus; test: Clearance in Sprague-Dawley rat at 25 mg/kg, po or 5 mg/kg, iv administered as single dose by LC-MS/MS analysis; assay type: ADME, organism-based; conditions: in vivo
[7] = Apparent volume of distribution during terminal phase in Sprague-Dawley rat at 25 mg/kg, po or 5 mg/kg, iv administered as single dose by LC-MS/MS analysis; assay type: ADME, organism-based; conditions: in vivo, read-out: Vz/F
[8] = test system: Rattus norvegicus; test: Oral bioavailability in Sprague-Dawley rat at 25 mg/kg administered as single dose by LC-MS/MS analysis; assay type: ADME, organism-based; conditions: in vivo
[9] = Metabolic stability in rat liver microsomes assessed as parent compound remaining at […] incubated for 5 mins measured up to 60 mins by LC-MS/MS analysis; assay type: ADME, microsome; conditions: read-out: Stability
[10] = Metabolic stability in dog liver microsomes assessed as parent compound remaining at […] incubated for 5 mins measured up to 60 mins by LC-MS/MS analysis; assay type: ADME, Canis lupus familiaris, microsome; conditions: read-out: Stability
[11] = Metabolic stability in human liver microsomes assessed as parent compound remaining at […] incubated for 5 mins measured up to 60 mins by LC-MS/MS analysis; assay type: ADME, microsome; conditions: read-out: Stability
[12] = Metabolic stability in mouse liver microsomes assessed as parent compound remaining at […] incubated for 5 mins measured up to 60 mins by LC-MS/MS analysis; assay type: ADME, microsome; conditions: read-out: Stability
[13] = Metabolic stability in monkey liver microsomes assessed as parent compound remaining at […] incubated for 5 mins measured up to 60 mins by LC-MS/MS analysis; assay type: ADME, Macaca mulatta, microsome; conditions: rhesus monkey, read-out: Stability

| Compound | half-life [1] [h] | half-life [2] [h] | also measured |
| --- | --- | --- | --- |
| CS(=O)(=O)c1ccccc1-c1c[nH]c2c(=O)n(Cc3cc(F)ccc3C#N)c(N3CCC[C@@H](N)C3)nc12 | 3.28 | > 3.33 |  |
| N#Cc1ccc(F)cc1Cn1c(N2CCC[C@@H](N)C2)nc2cc[nH]c2c1=O | > 1 | 3.33 | half-life [3]: 5.46 h; Tmax [4]: 0.14 h; AUCt [5]: 1880 ng·h/mL; CL [6]: 222 mL/min/kg; Vd/F [7]: 106 L/kg; F [8]: 10.6% |
| CS(=O)(=O)c1ccc(-c2c[nH]c3c(=O)n(Cc4cc(F)ccc4C#N)c(N4CCC[C@@H](N)C4)nc23)c(F)c1 | 1.59 | > 3.33 |  |
| N#Cc1ccc(F)cc1Cn1c(N2CCC[C@@H](N)C2)nc2c(-c3ccc(F)cc3)c[nH]c2c1=O | 1.2 | 3.01 |  |
| CC(C)S(=O)(=O)c1ccc(-c2c[nH]c3c(=O)n(Cc4cc(F)ccc4C#N)c(N4CCC[C@@H](N)C4)nc23)cc1 | > 3.33 | 0.722 |  |
| N#Cc1ccc(F)cc1Cn1c(N2CCC[C@@H](N)C2)nc2c(-c3ccsc3)c[nH]c2c1=O | 0.783 | 2.67 | half-life [3]: 7.89 h; Tmax [4]: 2.33 h; AUCt [5]: 2920 ng·h/mL; CL [6]: 147 mL/min/kg; Vd/F [7]: 104 L/kg; F [8]: 33.4% |
| N#Cc1ccc(F)cc1Cn1c(N2CCC[C@@H](N)C2)nc2c(Br)c[nH]c2c1=O | 0.625 | 2.21 |  |
| CS(=O)(=O)c1cccc(-c2c[nH]c3c(=O)n(Cc4cc(F)ccc4C#N)c(N4CCC[C@@H](N)C4)nc23)c1 | 1.65 | > 3.33 |  |
| N#Cc1ccc(F)cc1Cn1c(N2CCC[C@@H](N)C2)nc2c(F)c[nH]c2c1=O | 0.838 | 1.64 |  |
| N#Cc1ccc(F)cc1Cn1c(N2CCC[C@@H](N)C2)nc2c(-c3ccc(S(N)(=O)=O)cc3)c[nH]c2c1=O | > 3.33 | > 3.33 |  |
| CS(=O)(=O)c1ccc(-c2c[nH]c3c(=O)n(Cc4cc(F)ccc4C#N)c(N4CCC[C@@H](N)C4)nc23)cc1F | 2.78 | > 3.33 |  |
| CS(=O)(=O)c1ccc(-c2c[nH]c3c(=O)n(Cc4cc(F)ccc4C#N)c(N4CCC[C@@H](N)C4)nc23)cc1 | > 3.33 | > 3.33 |  |
| N#Cc1ccc(F)cc1Cn1c(N2CCC[C@@H](N)C2)nc2c(-c3cccs3)c[nH]c2c1=O | 0.609 | 0.585 |  |
| Cn1c(=O)cc(N2CCC[C@@H](N)C2)n(Cc2cc(F)ccc2C#N)c1=O [TRELAGLIPTIN] | > 3.33 | > 3.33 | remaining at 60 min [9]: > 80%; remaining at 60 min [10]: > 80%; remaining at 60 min [11]: > 80%; remaining at 60 min [12]: > 80%; remaining at 60 min [13]: > 80%; half-life [3]: 5.13 h; Tmax [4]: 0.7 h; AUCt [5]: 6820 ng·h/mL; CL [6]: 128 mL/min/kg; Vd/F [7]: 48.2 L/kg; F [8]: 46.9% |
